The values that follow come from paper PMC10836395, “Investigation of how gate residues in the main channel affect the catalytic activity of Scytalidium thermophilum catalase” (Acta Crystallographica. Section D, Structural Biology, 2024).

Substitutions are numbered along the chain they refer to. Marks after values point to notes of the source that are not given here.

Test [1] addresses CATPO (Scytalidium thermophilum (Humicola insolens), UniProt M4GGR5). Kind of test: Substrate-specificity analysis of the phenol oxidase activity. The class given is biochemical.
Test [2] addresses CATPO T188A variant (Scytalidium thermophilum (Humicola insolens), UniProt M4GGR5, T207A). The class given is biochemical.
The target in test [3] is CATPO E484A variant (Scytalidium thermophilum (Humicola insolens), UniProt M4GGR5, E503A). The test is described as follows: biochemical.
Chain of CATPO E484A variant (M4GGR5 entry or part of it E503A): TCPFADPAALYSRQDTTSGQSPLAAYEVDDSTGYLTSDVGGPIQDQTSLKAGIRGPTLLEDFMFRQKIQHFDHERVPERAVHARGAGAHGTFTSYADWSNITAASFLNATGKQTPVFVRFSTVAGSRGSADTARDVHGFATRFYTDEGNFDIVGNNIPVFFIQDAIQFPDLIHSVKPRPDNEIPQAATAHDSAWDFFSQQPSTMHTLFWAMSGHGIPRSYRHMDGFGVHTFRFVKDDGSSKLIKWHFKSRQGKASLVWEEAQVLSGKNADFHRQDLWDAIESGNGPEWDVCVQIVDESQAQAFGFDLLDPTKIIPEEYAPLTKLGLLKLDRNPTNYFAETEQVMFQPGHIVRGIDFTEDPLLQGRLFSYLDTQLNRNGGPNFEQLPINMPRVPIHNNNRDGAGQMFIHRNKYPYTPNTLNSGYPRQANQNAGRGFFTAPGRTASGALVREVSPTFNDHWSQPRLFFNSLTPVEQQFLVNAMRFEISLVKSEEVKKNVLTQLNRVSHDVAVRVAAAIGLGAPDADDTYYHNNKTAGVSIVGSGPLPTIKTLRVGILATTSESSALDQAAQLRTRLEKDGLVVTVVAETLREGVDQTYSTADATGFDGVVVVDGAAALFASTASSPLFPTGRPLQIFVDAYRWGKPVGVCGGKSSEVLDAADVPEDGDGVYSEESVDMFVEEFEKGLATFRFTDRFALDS
Test [4] has as its target T1, E484A (Mycothermus thermophilus, UniProt M4GGR5, E503A).
T1 construct: recombinant, pET-28-TEV-CATPO; contains heme b; Rz 0.8
T1 sequence (M4GGR5 20-717 E503A): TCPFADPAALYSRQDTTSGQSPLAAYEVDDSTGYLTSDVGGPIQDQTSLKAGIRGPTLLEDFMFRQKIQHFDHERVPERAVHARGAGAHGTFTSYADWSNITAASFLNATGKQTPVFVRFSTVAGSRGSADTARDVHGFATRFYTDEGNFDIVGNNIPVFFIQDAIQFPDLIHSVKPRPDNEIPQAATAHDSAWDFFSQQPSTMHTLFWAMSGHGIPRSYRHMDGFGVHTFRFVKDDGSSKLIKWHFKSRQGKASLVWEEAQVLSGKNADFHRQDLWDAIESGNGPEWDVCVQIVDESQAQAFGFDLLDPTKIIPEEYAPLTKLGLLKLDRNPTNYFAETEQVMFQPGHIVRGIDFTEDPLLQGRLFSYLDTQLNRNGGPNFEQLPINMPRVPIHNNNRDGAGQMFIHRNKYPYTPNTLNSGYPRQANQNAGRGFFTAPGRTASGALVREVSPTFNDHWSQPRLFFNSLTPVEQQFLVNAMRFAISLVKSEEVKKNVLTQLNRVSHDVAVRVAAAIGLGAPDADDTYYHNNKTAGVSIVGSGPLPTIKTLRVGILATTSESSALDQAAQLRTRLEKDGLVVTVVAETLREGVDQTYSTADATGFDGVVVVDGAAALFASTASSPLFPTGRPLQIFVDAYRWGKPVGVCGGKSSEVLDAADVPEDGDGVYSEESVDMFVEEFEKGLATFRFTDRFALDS
The test is described as follows: Spectrophotometric phenol oxidase assay without H2O2 at pH 7.0 and 60 °C, initial rates fitted to the Michaelis-Menten equation. Format: biochemical. The note with it: read-out: Phenol oxidase K m; n = 3. The method, then:
(§1) All inhibition assays were performed in triplicate.

For test [5], the target named is T2, T188F (Mycothermus thermophilus, UniProt M4GGR5, T207F).
T2 construct: recombinant, pET-28-TEV-CATPO; contains heme b; Rz 0.8
T2 sequence (M4GGR5 20-717 T207F): T1 sequence (M4GGR5 20-717 E503A) with T188F, A484E
The test is described as above. Format: biochemical. To be noted: read-out: Phenol oxidase K m; n = 3. Here is the method:
as §1

Test [6] addresses T3, T188I (Mycothermus thermophilus, UniProt M4GGR5, T207I).
T3 construct: recombinant, pET-28-TEV-CATPO; contains heme b; Rz 0.4
T3 sequence (M4GGR5 20-717 T207I): T1 sequence (M4GGR5 20-717 E503A) with T188I, A484E
The test is described as above. Format: biochemical. The note with it: read-out: Phenol oxidase K m; n = 3. The method, then:
as §1

Chain of CATPO T188A variant (M4GGR5 entry or part of it T207A): as the sequence (M4GGR5 entry or part of it E503A) above
Chain of CATPO (M4GGR5 entry or part of it): as the sequence (M4GGR5 entry or part of it E503A) above

`Oc1cccc(O)c1O` [Pyrogallol, pyrogallol]: the results for the V max in test [1] and in test [2] were 18450 ± 451 mM/min and 16200 ± 410 mM/min, respectively. Moreover, the “k cat/K m” value is recorded as 960 ± 65 s^−1 M^−1 (×10^2) in test [1] and 660 ± 88 s^−1 M^−1 (×10^2) in test [2]. The K m came to 40 ± 1.0 mM in test [2] (pH 7.0 (ABTS pH 5.0), 60°C); 36 ± 0.7 mM in test [4]; 37 ± 0.5 mM in test [5]; 38 ± 0.5 mM in test [6]. In test [3], this molecule yielded a Ki of 71 ± 4 mM.

By Ki is commonly meant the equilibrium dissociation constant of an inhibitor or competing ligand from its target. Higher therefore signals a looser hold on the target.
